Measurements reported in patent US11628198B2, “Methods for prevention and treatment of acute renal injury” (Cornell University, priority 2008, dated 2023).
Marks after values point to notes of the source that are not given here. Non-standard residues stand in square brackets, D forms with d. No end group written: not given here.

Columns and labels:
CIN in patients = details: 443 patients randomly assigned; cited from earlier work
[1] = tested on: ATP content in renal tissue; test: I/R model: ATP content assay of kidney tissue; format: in vivo, rat
Experimental: (§1) Sprague Dawley rats (250˜300 g) were assigned to four groups: (1) sham surgery group without I/R; (2) I/R+saline vehicle treatment; (3) I/R+SS-20 treatment; (4) I/R+SS-31 treatment. Each experimental group consisted of 8 rats. SS-20 and SS-31 (3 mg/kg, dissolved in saline) were administered to rats 30 min before ischemia and immediately before onset of reperfusion. The control rats were given saline alone on the same schedule.
(§2) Rats were anesthetized with a mixture of ketamine (90 mg/kg, i.p.) and xylazine (4 mg/kg, i.p.). The left renal vascular pedicle was occluded temporarily using a micro-clamp for 30 or 45 min. At the end of the ischemic period, reperfusion was established by removing of the clamp. At that time, the contralateral right kidney was removed. After 24 h reperfusion, animals were sacrificed and blood samples were obtained by cardiac puncture. Renal function was determined by blood urea nitrogen (BUN) and serum creatinine (BioAssay Systems DIUR-500 and DICT-500).
ATP Content Assay: The kidney tissue was immediately put into 10 ml 5% trichloroacetic acid with 10 mM DTT, 2 mM EDTA and cut into small pieces. The tissue was homogenized on ice, incubated for another 10 min, centrifuged for 10 min at 2000×g, and neutralized with 10N KOH to pH 7.6. After centrifugation for 10 min at 2000×g, aliquots of the resulting supernatant were stored at −80° C. ATP was measured by bioluminescence (ATP bioluminescent kit, Sigma, MO, USA).

[2] = tested on: ARI caused by ischemia-reperfusion (I/R); test: I/R model: renal morphologic examination (H&E, PAS); format: in vivo, rat; details: 45 min ischemia and 24 h reperfusion
Experimental: as §1, §2
Renal Morphologic Examination: Kidneys were fixed in 10% neutral-buffered formalin and embedded in paraffin wax. Three micron sections were stained with hematoxylin-eosin (H&E) and periodic acid-Schiff (PAS) and analyzed by light microscopy. Lesions were scored using the following criteria: [1] mitosis and necrosis of individual cells; [2] necrosis of all cells in adjacent proximal convoluted tubules with survival of surrounding tubules; [3] necrosis confined to the distal third of the proximal convoluted tubule with a band of necrosis extending across the inner cortex; and [4] necrosis affecting all three segments of the proximal convoluted tubule.

renal mitochondria = test: I/R model: respiration of isolated renal mitochondria; format: in vivo, rat; details: after 45 min ischemia, pretreatment
Experimental: Results. The effects of the aromatic-cationic peptides of the invention on a model of ARI caused by ischemia-reperfusion were investigated. Renal mitochondria were isolated in accordance with the procedures described above and oxygen consumption was measured.
State 3 respiration was initiated with the addition of ADP.

[3] = tested on: ARI caused by ischemia-reperfusion (I/R); test: I/R model: TUNEL assay for apoptosis; format: in vivo, rat; details: 30 min ischemia and 24 h reperfusion; 3 mg/kg
Experimental: as §1, §2
TUNEL Assay for Apoptosis: Renal tissue sections were deparaffinized and rehydrated by xylenes, graded alcohol series and deionized H2O, and then incubated in 20 μg/ml proteinase K for 20 min at RT. In situ cell death detection POD kit (Roche, IN, USA) was used according to the manufacturer's instructions. […]

[4] = tested on: ARI caused by ischemia-reperfusion (I/R); test: I/R model of ARI: BUN and serum creatinine; format: in vivo, rat; details: 45 min ischemia and 24 h reperfusion; 3 mg/kg 30 min before ischemia and before reperfusion
Experimental: as §1, §2
BUN and serum creatinine were assayed using kits from BioAssay Systems (DIUR-500 and DICT-500). […] The # indicates p<0.05 from the IR=saline group.

Row | Compound | incidence of CIN (CIN in patients) [%] | ATP content in renal tissue ([1]; 1 h reperfusion following 45 min ischemia, vs vehicle) | ATP content in renal tissue ([1]; end of 15 min ischemia) | histopathological score [2] | tubular cell injury (H&E, PAS) [2] | renal mitochondrial oxygen consumption (state 3 respiration) (renal mitochondria) | TUNEL-positive cells in the medulla (tubular cell apoptosis) [3] | BUN [4] | serum creatinine [4]
1 | C[C@H](O)C(=O)Nc1c(I)c(C(=O)NC(CO)CO)c(I)c(C(=O)NC(CO)CO)c1I [Iopamidol (Isovue 370), Iopamidol] | 8.2 |  |  |  |  |  |  |  | 
2 | F[dR]FK-NH2 [SS-20] |  | significantly higher | not altered | significantly improved histopathological score | protected brush border and prevented necrosis in the proximal tubules | significantly improved oxygen consumption | significantly prevented TUNEL-positive cells | 130.7 ± 5.5# mg/dl | 1.06 ± 0.11# mg/dl
